Experimental data: patent US10202360B2 (CELGENE QUANTICEL RESEARCH, INC., priority 2016, dated 2019)

Target: CREBBP (Homo sapiens (Human), UniProt Q92793)
Experiment: In vitro enzyme inhibition assay - CREBBP inhibition (AlphaScreen, biotinylated H4-tetraacetyl peptide)
Format: binding
Details: Table 28; AlphaScreen, H4-tetraacetyl peptide
How it was run: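 Displacement of 20 nM biotinylated tetraacetyl-H4 peptide from 50 nM E. coli-expressed His-CREBBP, measured by AlphaScreen after bead equilibration for 2 h.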

Sequence of CREBBP (Q92793 1081-1197): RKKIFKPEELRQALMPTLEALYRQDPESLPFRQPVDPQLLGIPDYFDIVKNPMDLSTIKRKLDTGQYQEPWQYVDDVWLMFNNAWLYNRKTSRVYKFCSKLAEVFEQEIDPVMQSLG

Structure (SMILES) | IC50
Cn1cc(-c2cc(NS(=O)(=O)CC3CC3)nc(Oc3c(F)cccc3Cl)n2)ccc1=O [Example 263, N-[2-(2-Chloro-6-fluoro-phenoxy)-6-(1-methyl-6-oxo-1,6-dihydro-pyridin-3-yl)-pyrimidin-4-yl]-C-cyclopropyl-methanesulfonamide] | < 500 nM
CCS(=O)(=O)Nc1nc(Oc2c(C)cccc2Cl)nc(-c2ccc(=O)n(C)c2)n1 [Example 179, Ethanesulfonic acid [4-(2-chloro-6-methyl-phenxoy)-6-(1-methyl-6-oxo-1,6-dihydro-pyridin-3-yl)-[1,3,5]triazin-2-yl]-amide] | < 500 nM
Cc1cccc(C#N)c1Oc1nc(NCc2ccccn2)cc(-c2ccc(=O)n(C)c2)n1 [Example 319, 3-Methyl-2-{4-(1-methyl-6-oxo-1,6-dihydro-pyridin-3-yl)-6-[(pyridin-2-ylmethyl)-amino]-pyrimidin-2-yloxy}-benzonitrile] | < 500 nM
CCS(=O)(=O)Nc1cc(-c2cc(C)c(=O)n(C)c2)nc(-c2ccccc2OC)n1 [Example 193, Ethanesulfonic acid [6-(1,5-dimethyl-6-oxo-1,6-dihydro-pyridin-3-yl)-2-(2-methoxy-phenyl)-pyrimidin-4-yl]-amide] | < 500 nM
Cc1cccc(F)c1Oc1nc(NS(=O)(=O)CCCC(F)(F)F)cc(-c2ccc(=O)n(C)c2)n1 [Example 146, 4,4,4-Trifluoro-butane-1-sulfonic acid [2-(2-fluoro-6-methyl-phenoxy)-6-(1-methyl-6-oxo-1,6-dihydro-pyridin-3-yl)-pyrimidin-4-yl]-amide] | < 500 nM
CCCS(=O)(=O)Nc1cc(Oc2c(C#N)cccc2OC)nc(-c2cc(C)c(=O)n(C)c2)n1 [Example 130, Propane-1-sulfonic acid [6-(2-cyano-6-methoxy-phenoxy)-2-(1,5-dimethyl-6-oxo-1,6-dihydro-pyridin-3-yl)-pyrimidin-4-yl]-amide] | < 500 nM
Cn1cc(-c2cc(NS(=O)(=O)CCCC(F)(F)F)nc(Oc3c(F)cccc3Cl)n2)ccc1=O [Example 232, 4,4,4-Trifluoro-butane-1-sulfonic acid [2-(2-chloro-6-fluoro-phenoxy)-6-(1-methyl-6-oxo-1,6-dihydro-pyridin-3-yl)-pyrimidin-4-yl]-amide] | < 500 nM
CCC(C)S(=O)(=O)Nc1cc(-c2ccc(=O)n(C)c2)nc(Oc2c(F)ccc(F)c2C)n1 (centres unmarked) [Example 351, N-(2-(3,6-difluoro-2-methylphenoxy)-6-(1-methyl-6-oxo-1,6-dihydropyridin-3-yl)pyrimidin-4-yl)butane-2-sulfonamide] | < 500 nM
CCCCNc1cc(-c2ccc(=O)n(C)c2)nc(Oc2c(C)cccc2C#N)n1 [Example 316, 2-[4-Butylamino-6-(1-methyl-6-oxo-1,6-dihydro-pyridin-3-yl)-pyrimidin-2-yloxy]-3-methyl-benzonitrile] | < 500 nM
Cc1cc(-c2cc(NC(=O)CC(C)C)nc(Oc3ccc(F)cc3F)n2)cn(C)c1=O [Example 77, N-(2-(2,4-difluorophenoxy)-6-(1,5-dimethyl-6-oxo-1,6-dihydropyridin-3-yl)pyrimidin-4-yl)-3-methylbutanamide] | 500 to 5000 nM
CC[C@H](C)S(=O)(=O)Nc1cc(-c2ccc(=O)n(C)c2)nc(Oc2c(C)ccc(F)c2F)n1 [Example 213, (2S)-Butane-2-sulfonic acid [2-(2,3-difluoro-6-methyl-phenoxy)-6-(1-methyl-6-oxo-1,6-dihydro-pyridin-3-yl)-pyrimidin-4-yl]-amide] | < 500 nM
CCS(=O)(=O)Nc1cc(-c2cc(C)c(=O)n(C)c2)nc(-c2ccccc2)n1 [Example 191, Ethanesulfonic acid [6-(1,5-dimethyl-6-oxo-1,6-dihydro-pyridin-3-yl)-2-phenyl-pyrimidin-4-yl]-amide] | 500 to 5000 nM
CCc1cccc(F)c1Oc1nc(NS(=O)(=O)[C@@H](C)CC)cc(-c2ccc(=O)n(C)c2)n1 [Example 215, (2S)-Butane-2-sulfonic acid [2-(2-ethyl-6-fluoro-phenoxy)-6-(1-methyl-6-oxo-1,6-dihydro-pyridin-3-yl)-pyrimidin-4-yl]-amide] | < 500 nM
CCCCS(=O)(=O)Nc1cc(-c2ccc(=O)n(C)c2)nc(OC2CCOCC2)n1 [Example 353, N-(6-(1-methyl-6-oxo-1,6-dihydropyridin-3-yl)-2-((tetrahydro-2H-pyran-4-yl)oxy)pyrimidin-4-yl)butane-1-sulfonamide] | < 500 nM
CCCCS(=O)(=O)Nc1cc(-c2ccc(=O)n(C)c2)nc(Oc2c(F)cccc2OC)n1 [Example 233, Butane-1-sulfonic acid [2-(2-fluoro-6-methoxy-phenoxy)-6-(1-methyl-6-oxo-1,6-dihydro-pyridin-3-yl)-pyrimidin-4-yl]-amide] | < 500 nM
CCS(=O)(=O)Nc1cc(-c2ccc(=O)n(C)c2)nc(-c2ccccc2C#N)n1 [Example 198, Ethanesulfonic acid [2-(2-cyano-phenyl)-6-(1-methyl-6-oxo-1,6-dihydro-pyridin-3-yl)-pyrimidin-4-yl]-amide] | < 500 nM
CCC[C@H](C)S(=O)(=O)Nc1cc(-c2ccc(=O)n(C)c2)nc(Oc2c(F)cccc2Cl)n1 [Example 218, (2S)-Pentane-2-sulfonic acid [2-(2-chloro-6-fluoro-phenoxy)-6-(1-methyl-6-oxo-1,6-dihydro-pyridin-3-yl)-pyrimidin-4-yl]-amide] | < 500 nM
CCC(F)(F)S(=O)(=O)Nc1cc(-c2ccc(=O)n(C)c2)nc(Oc2c(C)cccc2F)n1 [Example 166, 1,1-Difluoro-propane-1-sulfonic acid [2-(2-fluoro-6-methyl-phenoxy)-6-(1-methyl-6-oxo-1,6-dihydro-pyridin-3-yl)-pyrimidin-4-yl]-amide] | < 500 nM
CCCS(=O)(=O)Nc1cc(-c2ccc(=O)n(C)c2)nc(Oc2c(C)cccc2C#N)n1 [Example 109, Propane-1-sulfonic acid [2-(2-cyano-6-methyl-phenoxy)-6-(1-methyl-6-oxo-1,6-dihydro-pyridin-3-yl)-pyrimidin-4-yl]-amide] | < 500 nM

Other lines, results leading:

IC50 | Structure (SMILES)
< 500 nM | CCCCS(=O)(=O)Nc1cc(-c2cc(C)c(=O)n(C)c2)nc(Oc2ccccc2Cl)n1 [Example 16, Butane-1-sulfonic acid [2-(2-chloro-phenoxy)-6-(1,5-dimethyl-6-oxo-1,6-dihydro-pyridin-3-yl)-pyrimidin-4-yl]-amide]
< 500 nM | Cc1cc(Cl)cc(Cl)c1Oc1nc(NS(C)(=O)=O)cc(-c2cc(C)c(=O)n(C)c2)n1 [Example 25, N-[2-(2,4-Dichloro-6-methyl-phenoxy)-6-(1,5-dimethyl-6-oxo-1,6-dihydro-pyridin-3-yl)-pyrimidin-4-yl]-methanesulfonamide]
< 500 nM | CCS(=O)(=O)Nc1cc(-c2cc(C)c(=O)n(C)c2)nc(OCC(F)(F)F)n1 [Example 151, N-(6-(1,5-dimehtyl-6-oxo-1,6-dihydropyridin-3-yl)-2-(2,2,2-trifluoroethoxy)pyrimidin-4-yl)ethanesulfonamide]
< 500 nM | CCCCS(=O)(=O)Nc1cc(-c2cc(C)c(=O)n(C)c2)nc(Oc2c(C#N)cccc2OC)n1 [Example 12, Butane-1-sulfonic acid [2-(2-cyano-6-methoxy-phenoxy)-6-(1,5-dimethyl-6-oxo-1,6-dihydro-pyridin-3-yl)-pyrimidin-4-yl]-amide]
< 500 nM | CCCCS(=O)(=O)Nc1cc(-c2ccc(=O)n(C)c2)nc(Oc2c(C)cc(Cl)cc2Cl)n1 [Example 32, Butane-1-sulfonic acid [2-(2,4-dichloro-6-methyl-phenoxy)-6-(1-methyl-6-oxo-1,6-dihydro-pyridin-3-yl)-pyrimidin-4-yl]-amide]
< 500 nM | Cc1cccc(C)c1Oc1nc(NS(=O)(=O)CC(C)C)cc(-c2cc(C)c(=O)n(C)c2)n1 [Example 83, N-(6-(1,5-dimethyl-6-oxo-1,6-dihydropyridin-3-yl)-2-(2,6-dimethylphenoxy)pyrimidin-4-yl)-2-methylpropane-1-sulfonamide]
< 500 nM | CCCS(=O)(=O)Nc1cc(-c2cc(C)c(=O)n(C)c2)nc(Oc2c(C)cccc2C)n1 [Example 80, N-(6-(1,5-dimethyl-6-oxo-1,6-dihydropyridin-3-yl)-2-(2,6-dimethylphenoxy)pyrimidin-4-yl)propane-1-sulfonamide]
< 500 nM | CCCCS(=O)(=O)Nc1cc(-c2cc(C)c(=O)n(C)c2)nc(Oc2c(C)nn(CC)c2C)n1 [Example 128, Butane-1-sulfonic acid [6-(1,5-dimethyl-6-oxo-1,6-dihydro-pyridin-3-yl)-2-(1-ethyl-3,5-dimethyl-1H-pyrazol-4-yloxy)-pyrimidin-4-yl]-amide]
< 500 nM | CCCCS(=O)(=O)Nc1cc(-c2cc(C)c(=O)n(C)c2)nc(Oc2cc(OC)ccc2C#N)n1 [Example 35, Butane-1-sulfonic acid [2-(2-cyano-5-methoxy-phenoxy)-6-(1,5-dimethyl-6-oxo-1,6-dihydro-pyridin-3-yl)-pyrimidin-4-yl]-amide]
< 500 nM | Cc1cccc(F)c1Oc1nc(N)cc(-c2cc(C)c(=O)n(C)c2)n1 [Example 294, 5-[6-Amino-2-(2-fluoro-6-methyl-phenoxy)-pyrimidin-4-yl]-1,3-dimethyl-1H-pyridin-2-one]
< 500 nM | CCCCS(=O)(=O)Nc1cc(-c2cc(C)c(=O)n(C)c2)nc(Oc2c(C)cc(Cl)cc2Cl)n1 [Example 28, Butane-1-sulfonic acid [2-(2,4-dichloro-6-methyl-phenoxy)-6-(1,5-dimethyl-6-oxo-1,6-dihydro-pyridin-3-yl)-pyrimidin-4-yl]-amide]
< 500 nM | Cc1cccc(Cl)c1Oc1nc(NS(=O)(=O)C(C)C)cc(-c2c[nH]c(=O)c(C)c2)n1 [Example 158, Propane-2-sulfonic acid [2-(2-chloro-6-methyl-phenoxy)-6-(5-methyl-6-oxo-1,6-dihydro-pyridin-3-yl)-pyrimidin-4-yl]-amide]
< 500 nM | CCCCS(=O)(=O)Nc1cc(-c2cc(C)c(=O)n(C)c2)nc(Oc2ccc(F)cc2F)n1 [Example 64, N-(2-(2,4-difluorophenoxy)-6-(1,5-dimethyl-6-oxo-1,6-dihydropyridin-3-yl)pyrimidin-4-yl)butane-1-sulfonamide]
